Test system: Dd2 strain of P. falciparum
Test: Activity against the Dd2 strain of P. falciparum (SYBR Green I, 72-h incubation)
Format: cell-based
Conditions: Plasmodium falciparum, DD2, 72 h, read-out: EC^50 Dd2
How it was run: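 SYBR Green I signal (ex 485, em 530 nm) measured growth, read after 24 h dark staining in saponin/Triton lysis buffer. Before that, compound-exposed Dd2 cultures (1% parasitemia, 1.0% hematocrit, 0.125% DMSO) grew 72 h at 37° C in low-oxygen gas. Background control: 20 μM mefloquine.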

| SMILES | EC50 |
| --- | --- |
| CCN1CC2(CCN(C(=O)OC(C)(C)C)CC2)c2c([nH]c3cc(OC)ccc23)[C@@H]1CO[Si](C)(C)C(C)(C)C [Compound 56, (R)-tert-butyl 1′-(((tert-butyldimethylsilyl)oxy)methyl)-2′-ethyl-7′-methoxy-1′,2′,3′,9′-tetrahydrospiro [piperidine-4,4′-pyrido[3,4-b]indole]-1-carboxylate] | 1.04 to 8.77 µM |
| CCN1CC2(CCN(C(=O)Nc3ccccc3F)CC2)c2c([nH]c3cc(OC)ccc23)[C@@H]1CO [Compound 60, (R)-2′-ethyl-N-(2-fluorophenyl)-1′-(hydroxymethyl)-7′-methoxy-1′,2′,3′,9′-tetrahydrospiro [piperidine-4,4′-pyrido[3,4-b]indole]-1-carboxamide] | 4.61 to 5.79 µM |
| COc1ccc2c3c([nH]c2c1)[C@H](CO)N(CC(F)(F)F)CC31CCN(C(=O)Nc2ccccc2F)CC1 [Compound 62, (R)-N-(2-fluorophenyl)-1′-(hydroxymethyl)-7′-methoxy-2′-(2,2,2-trifluoroethyl)-1′,2′,3′,9′-tetrahydrospiro[piperidine-4,4′-pyrido[3,4-b]indole]-1-carboxamide] | 4.49 to 9.48 µM |
| COC[C@H]1c2[nH]c3cc(OC)ccc3c2C2(CCN(C(=O)Nc3ccccc3F)CC2)CN1C(C)=O [Compound 69, (R)-2′-acetyl-N-(2-fluorophenyl)-7′-methoxy-1′-(methoxymethyl)-1′,2′,3′,9′-tetrahydrospiro [piperidine-4,4′-pyrido[3,4-b]indole]-1-carboxamide] | 9.05 µM |
| COc1ccc2c3c([nH]c2c1)[C@H](CO)N(CCCc1ccccc1)CC31CCN(C(=O)Nc2ccccc2F)CC1 [Compound 71, (R)-N-(2-fluorophenyl)-1′-(hydroxymethyl)-7′-methoxy-2′-(3-phenylpropy1)-1′,2′,3′,9′-tetrahydrospiro[piperidine-4,4′-pyrido[3,4-b]indole]-1-carboxamide] | 7.24 µM |
| COc1ccc2c3c([nH]c2c1)[C@H](CO)N(C(C)=O)CC31CCN(c2nc3ccccc3o2)CC1 [Compound 77, (R)-1-(1-(benzo[d]oxazol-2-yl)-1′-(hydroxymethyl)-7′-methoxyspiro [piperidine-4,4′-pyrido[3,4-b]indol]-2′(1′H,3′H,9′H)-yl)ethanone] | 8.5 µM |
| COc1ccc2c3c([nH]c2c1)[C@H](CO)N(Cc1cccc(F)c1)CC31CCN(Cc2ccccn2)CC1 [Compound 78, (R)-(2′-(3-fluorobenzyl)-7′-methoxy-1-(pyridin-2-ylmethyl)-1′,2′,3′,9′-tetrahydrospiro [piperidine-4,4′-pyrido[3,4-b]indol]-1′-yl)methanol] | 0.905 µM |
| COc1ccc2c3c(n(C)c2c1)[C@H](CO)NCC31CCN(Cc2ccc(-c3ccccn3)cc2)CC1 [Compound 79, (R)-(7′-methoxy-9′-methyl-1-(4-(pyridin-2-yl)benzyl)-1′,2′,3′,9′-tetrahydrospiro [piperidine-4,4′-pyrido[3,4-b]indol]-1′-yl)methanol] | 0.135 µM |
| COc1ccc2c3c([nH]c2c1)[C@@H](CO)N(Cc1cccc(F)c1)CC31CCN(Cc2ccccn2)CC1 [Compound 82, (S)-(2′-(3-fluorobenzyl)-7′-methoxy-1-(pyridin-2-ylmethyl)-1′,2′,3′,9′-tetrahydrospiro [piperidine-4,4′-pyrido[3,4-b]indol]-1′-yl)methanol] | 1.52 µM |
| COc1ccc2c3c(n(C)c2c1)[C@@H](CO)N(Cc1ccccc1OC)CC31CCN(CC2CC2)CC1 [Compound 83, (S)-(1-(cyclopropylmethyl)-7′-methoxy-2′-(2-methoxybenzyl)-9'-methyl-1′,2′,3′,9′-tetrahydrospiro [piperidine-4,4′-pyrido[3,4-b]indol]-1′-yl) methanol] | 0.522 µM |
| COc1ccc2c3c(n(C)c2c1)[C@H](CO)N(CC1CCCCC1)CC31CCN(Cc2nccs2)CC1 [Compound 85, (R)-(2′-(cyclohexylmethyl)-7′-methoxy-9′-methyl-1-(thiazol-2-ylmethyl)-1′,2′,3′,9′-tetrahydrospiro [piperidine-4,4′-pyrido[3,4-b]indol]-1′-yl)methanol] | 1.62 µM |

Continued, values first:

| EC50 | SMILES |
| --- | --- |
| 0.577 to 1.21 µM | COc1ccc2c3c([nH]c2c1)[C@H](CO)N(C(C)=O)CC31CCN(C(=O)Nc2ccccc2C(F)(F)F)CC1 [Compound 57, (R)-2′-acetyl-1′-(hydroxymethyl)-7′-methoxy-N-(2-(trifluoromethyl)phenyl)-1′,2′,3′,9′-tetrahydrospiro[piperidine-4,4′-pyrido[3,4-b]indole]-1-carboxamide] |
| 1.44 to 1.6 µM | COc1ccc2c3c([nH]c2c1)[C@H](CO)N(C(C)=O)CC31CCN(C(=O)Nc2ccc(F)c(F)c2)CC1 [Compound 58, (R)-2′-acetyl-N-(3,4-difluorophenyl)-1′-(hydroxymethyl)-7′-methoxy-1′,2′,3′,9′-tetrahydrospiro[piperidine-4,4′-pyrido[3,4-b]indole]-1-carboxamide] |
| 1.46 to 2.89 µM | COc1ccc2c3c([nH]c2c1)[C@H](CO)N(C(C)=O)CC31CCN(S(=O)(=O)c2ccccc2F)CC1 [Compound 59, (R)-1-(1-((2-fluorophenyl)sulfonyl)-1′-(hydroxymethyl)-7′-methoxyspiro[piperidine-4,4′-pyrido[3,4-b]indol]-2′(1′H,3′H,9′H)-yl)ethanone] |
| 3.78 to 4.12 µM | COc1ccc2c3c([nH]c2c1)[C@H](CO)N(C)CC31CCN(C(=O)Nc2ccccc2F)CC1 [Compound 61, (R)-N-(2-fluorophenyl)-1′-(hydroxymethyl)-7′-methoxy-2′-methyl-1′,2′,3′,9′-tetrahydrospiro[piperidine-4,4′-pyrido[3,4-b]indole]-1-carboxamide] |
| 1.7 to 2.92 µM | COc1ccc2c3c([nH]c2c1)[C@H](CO)N(C(C)=O)CC31CCN(C(=O)N(C)c2ccccc2F)CC1 [Compound 63, (R)-2′-acetyl-N-(2-fluorophenyl)-1′-(hydroxymethyl)-7′-methoxy-N-methyl-1′,2′,3′,9′-tetrahydrospiro[piperidine-4,4′-pyrido[3,4-b]indole]-1-carboxamide] |
| 3.62 µM | COCCOCOC[C@H]1c2[nH]c3cc(OC)ccc3c2C2(CCN(C(=O)Nc3ccccc3F)CC2)CN1C(C)=O [Compound 64, (R)-2′-acetyl-N-(2-fluorophenyl)-7′-methoxy-1′-(((2-methoxyethoxy)methoxy)methyl)-1′,2′,3′,9′-tetrahydrospiro[piperidine-4,4′-pyrido[3,4-b]indole]-1-carboxamide] |
| 0.882 µM | COc1ccc2c3c([nH]c2c1)[C@H](CN1CCOCC1)N(C(C)=O)CC31CCN(C(=O)Nc2ccccc2F)CC1 [Compound 65, (S)-2′-acetyl-N-(2-fluorophenyl)-7′-methoxy-1′-(morpholinomethyl)-1′,2′,3′,9′-tetrahydrospiro[piperidine-4,4′-pyrido[3,4-b]indole]-1-carboxamide] |
| 0.422 µM | COc1ccc(COC[C@H]2c3[nH]c4cc(OC)ccc4c3C3(CCN(C(=O)Nc4ccccc4F)CC3)CN2C(C)=O)cc1 [Compound 66, (R)-2′-acetyl-N-(2-fluorophenyl)-7′-methoxy-1′-(((4-methoxybenzyl)oxy)methyl)-1′,2′,3′,9′-tetrahydrospiro[piperidine-4,4′-pyrido[3,4-b]indole]-1-carboxamide] |
| 3.04 µM | COCOC[C@H]1c2[nH]c3cc(OC)ccc3c2C2(CCN(C(=O)Nc3ccccc3F)CC2)CN1C(C)=O [Compound 67, (R)-2′-acetyl-N-(2-fluorophenyl)-7′-methoxy-1′-((methoxymethoxy)methyl)-1′,2′,3′,9′-tetrahydrospiro [piperidine-4,4′-pyrido[3,4-b]indole]-1-carboxamide] |
| 0.918 to 2.27 µM | COc1ccc2c3c([nH]c2c1)[C@H](CO)N(C(C)=O)CC31CCN(C(=O)Nc2ccccn2)CC1 [Compound 68, (R)-2′-acety1-1′-(hydroxymethyl)-7′-methoxy-N-(pyridin-2-yl)-1′,2′,3′,9′-tetrahydrospiro[piperidine-4,4′-pyrido[3,4-b]indole]-1-carboxamide] |
| 0.468 µM | COc1ccc2c3c([nH]c2c1)[C@H](CCO)N(C(C)=O)CC31CCN(C(=O)Nc2ccccc2F)CC1 [Compound 73, (S)-2′-acetyl-N-(2-fluorophenyl)-1′-(2-hydroxyethyl)-7′-methoxy-1′,2′,3′,9′-tetrahydrospiro [piperidine-4,4′-pyrido[3,4-b]indole]-1-carboxamide] |
| 0.03 to 0.13 µM | COc1ccc2c3c([nH]c2c1)[C@H](CC(F)(F)F)N(C(C)=O)CC31CCN(C(=O)Nc2ccccc2F)CC1 [Compound 74, (S)-2′-acetyl-N-(2-fluorophenyl)-7′-methoxy-1′-(2,2,2-trifluoroethyl)-1′,2′,3′,9′-tetrahydrospiro[piperidine-4,4′-pyrido[3,4-b]indole]-1-carboxamide] |
| 1.3 µM | COc1ccc2c3c([nH]c2c1)[C@H](CO)N(C(=O)Nc1ccc(F)cc1)CC31CCN(S(=O)(=O)c2ccccc2)CC1 [Compound 80, (R)-N-(4-fluorophenyl)-1′-(hydroxymethyl)-7′-methoxy-1-(phenylsulfonyl)-3′,9′-dihydrospiro[piperidine-4,4′-pyrido[3,4-b]indole]-2′(1′H)-carboxamide] |
| 0.13 µM | COc1ccc2c3c(n(C)c2c1)[C@H](CO)N(Cc1ccc2c(c1)OCO2)CC31CN(C(=O)c2ccc3c(c2)OCO3)C1 [Compound 81, (R)-benzo[d][1,3] dioxol-5-y1(2′-(benzo[d][1,3]dioxol-5-ylmethyl)-1′-(hydroxymethyl)-7′-methoxy-9′-methyl-1′,2′,3′,9′-tetrahydrospiro[azetidine-3,4′-pyrido[3,4-b]indol]-1-yl)methanone] |
| 2.53 µM | COc1cccc(S(=O)(=O)N2CCC3(CC2)CN[C@H](CO)c2[nH]c4cc(OC)ccc4c23)c1 [Compound 84, (S)-(7′-methoxy-1-((3-methoxyphenyl)sulfonyl)-1′,2′,3′,9′-tetrahydrospiro [piperidine-4,4′-pyrido[3,4-b]indol]-1′-yl)methanol] |
